Key:
[1] = mTHPC biodistribution after intraperitoneal injection, colorectal peritoneal carcinomatosis model (CT26); format: in vivo, mouse; settings: for mTHPC level in tumor tissue: 0.5 mg/kg mTHPC, mean±SEM
Experimental: All animal experiments were performed in agreement with institutional animal use and care after approval by the local Ethics Committee (registration number for the carcinomatosis model experiment: APAFIS-8617). Six-week-old female BALB/c (provided by Charles River, Arbresle, France and weighing 18 g) and C57BL/6 mice were provided with food and water ad libidum, for colon and ovarian model respectively. The animals were allowed to acclimate to the facility for at least one week before being used for experiments. Colorectal model was induced with an intraperitoneal injection of 5·10^4 CT26 cells resuspended in a volume of 200 μL of physiological saline per inoculum. […] Between the days of IP injection and sacrifice, the wellbeing of the mice was checked twice a week through the search of any sign of pain, dehydration, changing in behavior or loss of weight.
Briefly, tumor-bearing animals (with colorectal carcinomatosis) were injected at 0.5 mg/kg mTHPC intraperitoneally. Either at 4 h, 15 h, 24 h or 48 h mice were sacrificed to determine mTHPC accumulation in different organs: tumors, liver, spleen, kidney, intestine, peritoneum, skin and lung. First, organs were weighed and grinded in PBS (1 mL per 10 mg of organ). The amount of 0.8 mL of MeOH per 10 mg of organ was added to the solution and vortexed; then, 0.8 mL of chloroform was added. The solution was centrifuged at 1400 rpm for 10 minutes to allow the separation of the aqueous and chloroform phases. The bottom layer consisting of the chloroform and the solubilized mTHPC was transferred for spectroscopy measurements. Fluorescence emission spectra were obtained by a fluorescence spectrophotometer using 415 nm excitation wavelength.

[2] = test system: colorectal peritoneal carcinomatosis (CT26); assay: Early effectiveness of PDT in mouse model of colorectal peritoneal carcinomatosis (histology, TUNEL, immunostaining 48 h after illumination); format: in vivo
Experimental: (§1) After 24 h, animals from both groups were anesthetized with isoflurane, a midline laparotomy was performed to allow invasive laser irradiation, and were then irradiated using a 650 nm laser at a fluence of 10 J/cm^2 (100 mW/cm^2 for 100 s). Two irradiations spots were successively realized to allow an illumination of the entire cavity and drops of saline were used to keep the tissue moist. A heating device was used to keep body temperature stable throughout the treatment until the animal was woken up. The peritoneum and the skin were separately sutured immediately after irradiation.
(§2) Treatment injection was made 12 days after IP inoculation of CT26, followed by invasive illumination 24 hours after. Six groups were performed for each experimentation: (i) no treatment, (ii) laser, (iii) free mTHPC, (iv) EVs-mTHPC, (v) free mTHPC+laser, (vi) EVs-mTHPC+laser.
Early effectiveness was evaluated 48 hours after illumination to compare: tumoral necrosis, apoptosis, macrophages invasion, lymphocyte recruitment, vascular damage and proliferative index result according to treatment. Long-term effectiveness consisted on a survival analysis function of the treatment.
For immunohistochemical detection of the chosen markers for tumor tissue, sections were deparaffined and subject to antigen retrieval methods validated for each of the primary antibodies.
Antibody expression for each analysis was evaluated by the mean number of positive cells in 3 randomly chosen areas (×40 magnification) for 10-15 nodes by treatment. Quantitative analysis of immunostaining preparation was performed using the color segmentation ImageJ plugin developed by the Biomedical Imaging Group at the EPFL, Switzerland.
TUNEL assay: Cell apoptosis in tumour was detected by a FragEL DNA fragmentation (TUNEL) detection kit (Sigma, Roche, ref 11684795910). In brief the cryostat section were permeabilized with 0.1% Triton and 0.1% (citrate de sodium) in 10×PBS. The slides were then labeled with a TdT reaction mixture for 60 min and were mounted with a mounting solution containing 4′, 6-diamidino-2-phenylindole (DAPI). The apoptotic cells (green) and cell nucleus (blue) was examined using a fluorescence microscopy. The percentage of apoptotic cells was assessed in 2 randomly fields at 40× magnification. The apoptotic index was calculated with image J.
For image-based quantitative analysis of blood vessels, immunofluorescence detection of CD31 was made after one hour incubation with antiCD31 antibody (BD 553370,1/50) and 45 min incubation with second antibody (Alexa Fluor® 488, ThermoFisher, A11006, dilution 1/200)

[3] = test system: colorectal peritoneal carcinomatosis (CT26); assay: Survival analysis after PDT in colorectal peritoneal carcinomatosis model; format: in vivo, mouse
Experimental: as §1, §2
Another 10 or 11 mice were selected from each group to evaluate the overall survival until 30 days. The end point was defined as mice death or the cachexia with the loss of 20% of the total weight that required the killing of the animal (as mentioned in the registration).

SMILES: Oc1cccc(-c2c3nc(c(-c4cccc(O)c4)c4ccc([nH]4)c(-c4cccc(O)c4)c4nc(c(-c5cccc(O)c5)c5ccc2[nH]5)CC4)C=C3)c1 [mTHPC, 5,10,15,20-Tetrakis(3-hydroxyphenyl)chlorin]
- mTHPC level in tumor tissue ([1]; 4 h after IP injection): 0.10±0.01 ng/mg tissue
- mTHPC level in tumor tissue ([1]; 15 h after IP injection): 0.15±0.04 ng/mg tissue
- mTHPC level in tumor tissue ([1]; 24 h after IP injection): 0.16±0.05 ng/mg tissue
- mTHPC level in tumor tissue ([1]; 48 h after IP injection): 0.10±0.00 ng/mg tissue
- tumor-to-organ ratio, total average ([1]; average over all time points): 2.5
- CD8 detection in tumor ([2]; +laser): 1.88%±0.2
- CD31 expression (fluorescence signal) ([2]; +laser): 0.55·10^7±1.0·10^6
- TUNEL mean fluorescence per mm^2 of tumor (apoptosis) ([2]; +laser): 2.17±0.2
- anti CD3 labeling in tumor (T-lymphocyte infiltration) ([2]; +laser): 2.51%±0.3
- macrophage intra-tumor invasion (anti F4/80) ([2]; +laser): 41.45%±2.2
- mean Ki67-index ([2]; +laser): 26.2%±4.5
- proliferation index reduced by a factor of ([2]; photoactivated (+laser)): 2
- CD8 detection in tumor ([2]; without laser): 0.44%±0.07
- CD31 expression (fluorescence signal) ([2]; without laser): 1.06·10^7±1.4·10^6
- TUNEL mean fluorescence per mm^2 of tumor (apoptosis) ([2]; without laser): 0.86±0.4
- anti CD3 labeling in tumor (T-lymphocyte infiltration) ([2]; without laser): 0.33%±0.07
- macrophage intra-tumor invasion (anti F4/80) ([2]; without laser): 13.19%±1.4
- mean Ki67-index ([2]; without laser): 45.52±3.4%
- dead mice 4 days after laser illumination (lethal toxicity) ([3]; +laser, […]): 91%
- histological analysis after PDT (liver, kidney) ([3]; non-vectorized PDT group): hepatic and kidney necrosis
